Measured values from patent US9518061B2, “Substituted pyrazolylpyrazole derivative and use of same as herbicide” (KYOYU AGRI CO., LTD., priority 2013, dated 2016).

Experiments:
Assay type in all cases: in vivo
Echinochloa crus-galli = assay: Paddy herbicidal activity test; conditions: irrigated paddy pot, treated at 3.5 leaf stage of Echinochloa crus-galli, 30 days
Protocol: (§1) 1. Paddy Herbicidal Activity Test
(§2) Rice paddy soil was filled into a 1/10000 are pot followed by the addition of suitable amounts of water and chemical fertilizer, kneading, seeding with Echinochloa crus-galli, Monochoria vaginalis and Scirpus juncoides and maintaining in an irrigated state at a water depth of 3 cm.
(§3) Wettable powder of Target Compound (I) shown in Table 1 prepared in compliance with the preparation examples were diluted with a suitable amount of water, rice plants in the 2.0 leaf stage were transplanted during 3.5 leaf stage of Echinochloa crus-galli, and treated by dropping in chemical in the prescribed amount per are using a pipette.
(§4) After treating for 30 days in a glass greenhouse at an average atmospheric temperature of 30° C., the herbicidal efficacy thereof was investigated.
(§5) Evaluation of herbicidal efficacy was carried out by comparing growth inhibition rate (%) with an untreated group, while evaluation of phytotoxicity was carried out by comparing growth inhibition rate (%) with the state of a complete eradication group, and were evaluated at 11 levels indicated below.

Monochoria vaginalis = assay: Paddy herbicidal activity test; conditions: irrigated paddy pot, 30 days
Protocol: as §1, §2, §3, §4, §5

Scirpus juncoides = assay: Paddy herbicidal activity test; conditions: irrigated paddy pot, 30 days
Protocol: as §1, §2, §3, §4, §5

Rice plants = assay: Paddy herbicidal activity test, phytotoxicity to transplanted rice; conditions: rice transplanted in 2.0 leaf stage, 30 days
Protocol: as §1, §2, §3, §4, §5

For `CCOCCN(C(=O)C(F)(F)F)c1c(C#N)cnn1-c1nn2c(c1Br)CCCC2` [Compound 14], the “herbicidal efficacy (growth inhibition rate level) Echinochloa crus-galli” value (Echinochloa crus-galli; 1g a.i./10a) was 9 (90% to less than 100%), the “herbicidal efficacy (growth inhibition rate level) Echinochloa crus-galli” value (Echinochloa crus-galli; 5g a.i./10a) was 9 (90% to less than 100%) and the “herbicidal efficacy (growth inhibition rate level) Monochoria vaginalis” value (Monochoria vaginalis; 1g a.i./10a) was 7 (70% to less than 80%). For the same compound, the “herbicidal efficacy (growth inhibition rate level) Monochoria vaginalis” value (Monochoria vaginalis; 5g a.i./10a) was 8 (80% to less than 90%), the “herbicidal efficacy (growth inhibition rate level) Scirpus juncoides” value (Scirpus juncoides; 1g a.i./10a) was 8 (80% to less than 90%) and the “herbicidal efficacy (growth inhibition rate level) Scirpus juncoides” value (Scirpus juncoides; 5g a.i./10a) was 9 (90% to less than 100%). For the same compound, the “phytotoxicity (growth inhibition rate level) Rice plants” value (Rice plants; 1g a.i./10a) was 1 (10% to less than 20%) and the “phytotoxicity (growth inhibition rate level) Rice plants” value (Rice plants; 5g a.i./10a) was 1 (10% to less than 20%).

`N#Cc1cnn(-c2nn3c(c2Br)CCCC3)c1N(CCC(F)(F)F)C(=O)C(F)(F)F` [Compound 18] was tested, and the “herbicidal efficacy (growth inhibition rate level) Echinochloa crus-galli” value (Echinochloa crus-galli; 1g a.i./10a) was 9 (90% to less than 100%), the “herbicidal efficacy (growth inhibition rate level) Echinochloa crus-galli” value (Echinochloa crus-galli; 5g a.i./10a) was 10 (100%) and the “herbicidal efficacy (growth inhibition rate level) Monochoria vaginalis” value (Monochoria vaginalis; 1g a.i./10a) was 7 (70% to less than 80%). For the same compound, the “herbicidal efficacy (growth inhibition rate level) Monochoria vaginalis” value (Monochoria vaginalis; 5g a.i./10a) was 8 (80% to less than 90%), the “herbicidal efficacy (growth inhibition rate level) Scirpus juncoides” value (Scirpus juncoides; 1g a.i./10a) was 9 (90% to less than 100%) and the “herbicidal efficacy (growth inhibition rate level) Scirpus juncoides” value (Scirpus juncoides; 5g a.i./10a) was 9 (90% to less than 100%). The “phytotoxicity (growth inhibition rate level) Rice plants” value (Rice plants; 1g a.i./10a) was 0 (0 (exponent): 0% to less than 10% (growth inhibition rate)) and the “phytotoxicity (growth inhibition rate level) Rice plants” value (Rice plants; 5g a.i./10a) was 1 (10% to less than 20%).

In the case of `CCOCCN(C(=O)C(F)(F)F)c1c(C#N)cnn1-c1nn2c(c1Cl)CCCC2` [Compound 5], the “herbicidal efficacy (growth inhibition rate level) Echinochloa crus-galli” value (Echinochloa crus-galli; 1g a.i./10a) is reported as 9 (90% to less than 100%), the “herbicidal efficacy (growth inhibition rate level) Echinochloa crus-galli” value (Echinochloa crus-galli; 5g a.i./10a) is reported as 9 (90% to less than 100%) and the “herbicidal efficacy (growth inhibition rate level) Monochoria vaginalis” value (Monochoria vaginalis; 1g a.i./10a) is reported as 8 (80% to less than 90%). For the same compound, the “herbicidal efficacy (growth inhibition rate level) Monochoria vaginalis” value (Monochoria vaginalis; 5g a.i./10a) was 8 (80% to less than 90%), the “herbicidal efficacy (growth inhibition rate level) Scirpus juncoides” value (Scirpus juncoides; 1g a.i./10a) was 8 (80% to less than 90%) and the “herbicidal efficacy (growth inhibition rate level) Scirpus juncoides” value (Scirpus juncoides; 5g a.i./10a) was 9 (90% to less than 100%). For the same compound, the “phytotoxicity (growth inhibition rate level) Rice plants” value (Rice plants; 1g a.i./10a) was 0 (0 (exponent): 0% to less than 10% (growth inhibition rate)) and the “phytotoxicity (growth inhibition rate level) Rice plants” value (Rice plants; 5g a.i./10a) was 1 (10% to less than 20%).

With `N#Cc1cnn(-c2nn3c(c2Br)CCCC3)c1N(CCCCl)C(=O)C(F)(F)F` [Compound 17] the “herbicidal efficacy (growth inhibition rate level) Echinochloa crus-galli” value (Echinochloa crus-galli; 1g a.i./10a) was 8 (80% to less than 90%), the “herbicidal efficacy (growth inhibition rate level) Echinochloa crus-galli” value (Echinochloa crus-galli; 5g a.i./10a) was 8 (80% to less than 90%) and the “herbicidal efficacy (growth inhibition rate level) Monochoria vaginalis” value (Monochoria vaginalis; 1g a.i./10a) was 9 (90% to less than 100%). The “herbicidal efficacy (growth inhibition rate level) Monochoria vaginalis” value (Monochoria vaginalis; 5g a.i./10a) was 9 (90% to less than 100%), the “herbicidal efficacy (growth inhibition rate level) Scirpus juncoides” value (Scirpus juncoides; 1g a.i./10a) was 7 (70% to less than 80%) and the “herbicidal efficacy (growth inhibition rate level) Scirpus juncoides” value (Scirpus juncoides; 5g a.i./10a) was 8 (80% to less than 90%). For the same compound, the “phytotoxicity (growth inhibition rate level) Rice plants” value (Rice plants; 1g a.i./10a) was 0 (0 (exponent): 0% to less than 10% (growth inhibition rate)) and the “phytotoxicity (growth inhibition rate level) Rice plants” value (Rice plants; 5g a.i./10a) was 0 (0 (exponent): 0% to less than 10% (growth inhibition rate)).

For `COCCN(C(=O)C(F)(F)F)c1c([N+](=O)[O-])cnn1-c1nn2c(c1Br)CCCC2` [Compound 23], the “herbicidal efficacy (growth inhibition rate level) Echinochloa crus-galli” value (Echinochloa crus-galli; 1g a.i./10a) was 7 (70% to less than 80%), the “herbicidal efficacy (growth inhibition rate level) Echinochloa crus-galli” value (Echinochloa crus-galli; 5g a.i./10a) was 8 (80% to less than 90%) and the “herbicidal efficacy (growth inhibition rate level) Monochoria vaginalis” value (Monochoria vaginalis; 1g a.i./10a) was 8 (80% to less than 90%). For the same compound, the “herbicidal efficacy (growth inhibition rate level) Monochoria vaginalis” value (Monochoria vaginalis; 5g a.i./10a) was 8 (80% to less than 90%), the “herbicidal efficacy (growth inhibition rate level) Scirpus juncoides” value (Scirpus juncoides; 1g a.i./10a) was 8 (80% to less than 90%) and the “herbicidal efficacy (growth inhibition rate level) Scirpus juncoides” value (Scirpus juncoides; 5g a.i./10a) was 8 (80% to less than 90%). The “phytotoxicity (growth inhibition rate level) Rice plants” value (Rice plants; 1g a.i./10a) was 0 (0 (exponent): 0% to less than 10% (growth inhibition rate)) and the “phytotoxicity (growth inhibition rate level) Rice plants” value (Rice plants; 5g a.i./10a) was 0 (0 (exponent): 0% to less than 10% (growth inhibition rate)).

`N#Cc1cnn(-c2nn3c(c2Cl)CCCC3)c1N(CCC(F)(F)F)C(=O)C(F)(F)F` [Compound 4] was tested, and the “herbicidal efficacy (growth inhibition rate level) Echinochloa crus-galli” value (Echinochloa crus-galli; 1g a.i./10a) was 9 (90% to less than 100%), the “herbicidal efficacy (growth inhibition rate level) Echinochloa crus-galli” value (Echinochloa crus-galli; 5g a.i./10a) was 10 (100%) and the “herbicidal efficacy (growth inhibition rate level) Monochoria vaginalis” value (Monochoria vaginalis; 1g a.i./10a) was 8 (80% to less than 90%). The “herbicidal efficacy (growth inhibition rate level) Monochoria vaginalis” value (Monochoria vaginalis; 5g a.i./10a) was 8 (80% to less than 90%), the “herbicidal efficacy (growth inhibition rate level) Scirpus juncoides” value (Scirpus juncoides; 1g a.i./10a) was 9 (90% to less than 100%) and the “herbicidal efficacy (growth inhibition rate level) Scirpus juncoides” value (Scirpus juncoides; 5g a.i./10a) was 9 (90% to less than 100%). For the same compound, the “phytotoxicity (growth inhibition rate level) Rice plants” value (Rice plants; 1g a.i./10a) was 0 (0 (exponent): 0% to less than 10% (growth inhibition rate)) and the “phytotoxicity (growth inhibition rate level) Rice plants” value (Rice plants; 5g a.i./10a) was 0 (0 (exponent): 0% to less than 10% (growth inhibition rate)).

For `COCCN(C(=O)C(F)(F)F)c1c(C#N)cnn1-c1nn2c(c1Br)CCCC2` [Compound 13], the “herbicidal efficacy (growth inhibition rate level) Echinochloa crus-galli” value (Echinochloa crus-galli; 1g a.i./10a) was 9 (90% to less than 100%), the “herbicidal efficacy (growth inhibition rate level) Echinochloa crus-galli” value (Echinochloa crus-galli; 5g a.i./10a) was 9 (90% to less than 100%) and the “herbicidal efficacy (growth inhibition rate level) Monochoria vaginalis” value (Monochoria vaginalis; 1g a.i./10a) was 8 (80% to less than 90%). The “herbicidal efficacy (growth inhibition rate level) Monochoria vaginalis” value (Monochoria vaginalis; 5g a.i./10a) was 9 (90% to less than 100%), the “herbicidal efficacy (growth inhibition rate level) Scirpus juncoides” value (Scirpus juncoides; 1g a.i./10a) was 7 (70% to less than 80%) and the “herbicidal efficacy (growth inhibition rate level) Scirpus juncoides” value (Scirpus juncoides; 5g a.i./10a) was 8 (80% to less than 90%). The “phytotoxicity (growth inhibition rate level) Rice plants” value (Rice plants; 1g a.i./10a) was 0 (0 (exponent): 0% to less than 10% (growth inhibition rate)) and the “phytotoxicity (growth inhibition rate level) Rice plants” value (Rice plants; 5g a.i./10a) was 1 (10% to less than 20%).

With `N#Cc1cnn(-c2nn3c(c2Cl)CCCC3)c1N(CCC(F)(F)F)C(=O)C(F)(F)C(F)(F)F` [Compound 7] the “herbicidal efficacy (growth inhibition rate level) Echinochloa crus-galli” value (Echinochloa crus-galli; 1g a.i./10a) was 9 (90% to less than 100%), the “herbicidal efficacy (growth inhibition rate level) Echinochloa crus-galli” value (Echinochloa crus-galli; 5g a.i./10a) was 9 (90% to less than 100%) and the “herbicidal efficacy (growth inhibition rate level) Monochoria vaginalis” value (Monochoria vaginalis; 1g a.i./10a) was 7 (70% to less than 80%). The “herbicidal efficacy (growth inhibition rate level) Monochoria vaginalis” value (Monochoria vaginalis; 5g a.i./10a) was 9 (90% to less than 100%), the “herbicidal efficacy (growth inhibition rate level) Scirpus juncoides” value (Scirpus juncoides; 1g a.i./10a) was 8 (80% to less than 90%) and the “herbicidal efficacy (growth inhibition rate level) Scirpus juncoides” value (Scirpus juncoides; 5g a.i./10a) was 8 (80% to less than 90%). The “phytotoxicity (growth inhibition rate level) Rice plants” value (Rice plants; 1g a.i./10a) was 0 (0 (exponent): 0% to less than 10% (growth inhibition rate)) and the “phytotoxicity (growth inhibition rate level) Rice plants” value (Rice plants; 5g a.i./10a) was 0 (0 (exponent): 0% to less than 10% (growth inhibition rate)).

For `N#Cc1cnn(-c2nn3c(c2Cl)CCCC3)c1N(CC(F)(F)F)C(=O)C(F)(F)F` [Compound 8], the “herbicidal efficacy (growth inhibition rate level) Echinochloa crus-galli” value (Echinochloa crus-galli; 1g a.i./10a) was 8 (80% to less than 90%), the “herbicidal efficacy (growth inhibition rate level) Echinochloa crus-galli” value (Echinochloa crus-galli; 5g a.i./10a) was 9 (90% to less than 100%) and the “herbicidal efficacy (growth inhibition rate level) Monochoria vaginalis” value (Monochoria vaginalis; 1g a.i./10a) was 9 (90% to less than 100%). For the same compound, the “herbicidal efficacy (growth inhibition rate level) Monochoria vaginalis” value (Monochoria vaginalis; 5g a.i./10a) was 9 (90% to less than 100%), the “herbicidal efficacy (growth inhibition rate level) Scirpus juncoides” value (Scirpus juncoides; 1g a.i./10a) was 9 (90% to less than 100%) and the “herbicidal efficacy (growth inhibition rate level) Scirpus juncoides” value (Scirpus juncoides; 5g a.i./10a) was 10 (100%). For the same compound, the “phytotoxicity (growth inhibition rate level) Rice plants” value (Rice plants; 1g a.i./10a) was 0 (0 (exponent): 0% to less than 10% (growth inhibition rate)) and the “phytotoxicity (growth inhibition rate level) Rice plants” value (Rice plants; 5g a.i./10a) was 0 (0 (exponent): 0% to less than 10% (growth inhibition rate)).

`N#Cc1cnn(-c2nn3c(c2Cl)CCCC3)c1N(CCCCl)C(=O)C(F)(F)F` [Compound 3] was tested, and the “herbicidal efficacy (growth inhibition rate level) Echinochloa crus-galli” value (Echinochloa crus-galli; 1g a.i./10a) was 8 (80% to less than 90%), the “herbicidal efficacy (growth inhibition rate level) Echinochloa crus-galli” value (Echinochloa crus-galli; 5g a.i./10a) was 9 (90% to less than 100%) and the “herbicidal efficacy (growth inhibition rate level) Monochoria vaginalis” value (Monochoria vaginalis; 1g a.i./10a) was 7 (70% to less than 80%). For the same compound, the “herbicidal efficacy (growth inhibition rate level) Monochoria vaginalis” value (Monochoria vaginalis; 5g a.i./10a) was 8 (80% to less than 90%), the “herbicidal efficacy (growth inhibition rate level) Scirpus juncoides” value (Scirpus juncoides; 1g a.i./10a) was 8 (80% to less than 90%) and the “herbicidal efficacy (growth inhibition rate level) Scirpus juncoides” value (Scirpus juncoides; 5g a.i./10a) was 8 (80% to less than 90%). The “phytotoxicity (growth inhibition rate level) Rice plants” value (Rice plants; 1g a.i./10a) was 1 (10% to less than 20%) and the “phytotoxicity (growth inhibition rate level) Rice plants” value (Rice plants; 5g a.i./10a) was 1 (10% to less than 20%).
